Experimental data reported in patent US9518052B2, “Pyrazolopyridines and pyrazolopyrimidines” (Pfizer Inc., priority 2014, dated 2016).
Structures can show the parent of a compound that is named as a salt.

Assays:
Format in all cases: biochemical
Settings in all cases: Caliper assay at 1 mM ATP
JAK1 = JAK1 (Homo sapiens (Human), UniProt P23458); test: JAK Caliper Enzyme Assay at 1 mM ATP (JAK1)
JAK2 = JAK2 (Homo sapiens (Human), UniProt O60674); test: JAK Caliper Enzyme Assay at 1 mM ATP (JAK2)
JAK3 = JAK3 (Homo sapiens (Human), UniProt P52333); test: JAK Caliper Enzyme Assay at 1 mM ATP (JAK3)
TYK2 = TYK2 (Homo sapiens (Human), UniProt P29597); test: JAK Caliper Enzyme Assay at 1 mM ATP (TYK2)
Sequence of TYK2 (P29597 whole entry, species assumed): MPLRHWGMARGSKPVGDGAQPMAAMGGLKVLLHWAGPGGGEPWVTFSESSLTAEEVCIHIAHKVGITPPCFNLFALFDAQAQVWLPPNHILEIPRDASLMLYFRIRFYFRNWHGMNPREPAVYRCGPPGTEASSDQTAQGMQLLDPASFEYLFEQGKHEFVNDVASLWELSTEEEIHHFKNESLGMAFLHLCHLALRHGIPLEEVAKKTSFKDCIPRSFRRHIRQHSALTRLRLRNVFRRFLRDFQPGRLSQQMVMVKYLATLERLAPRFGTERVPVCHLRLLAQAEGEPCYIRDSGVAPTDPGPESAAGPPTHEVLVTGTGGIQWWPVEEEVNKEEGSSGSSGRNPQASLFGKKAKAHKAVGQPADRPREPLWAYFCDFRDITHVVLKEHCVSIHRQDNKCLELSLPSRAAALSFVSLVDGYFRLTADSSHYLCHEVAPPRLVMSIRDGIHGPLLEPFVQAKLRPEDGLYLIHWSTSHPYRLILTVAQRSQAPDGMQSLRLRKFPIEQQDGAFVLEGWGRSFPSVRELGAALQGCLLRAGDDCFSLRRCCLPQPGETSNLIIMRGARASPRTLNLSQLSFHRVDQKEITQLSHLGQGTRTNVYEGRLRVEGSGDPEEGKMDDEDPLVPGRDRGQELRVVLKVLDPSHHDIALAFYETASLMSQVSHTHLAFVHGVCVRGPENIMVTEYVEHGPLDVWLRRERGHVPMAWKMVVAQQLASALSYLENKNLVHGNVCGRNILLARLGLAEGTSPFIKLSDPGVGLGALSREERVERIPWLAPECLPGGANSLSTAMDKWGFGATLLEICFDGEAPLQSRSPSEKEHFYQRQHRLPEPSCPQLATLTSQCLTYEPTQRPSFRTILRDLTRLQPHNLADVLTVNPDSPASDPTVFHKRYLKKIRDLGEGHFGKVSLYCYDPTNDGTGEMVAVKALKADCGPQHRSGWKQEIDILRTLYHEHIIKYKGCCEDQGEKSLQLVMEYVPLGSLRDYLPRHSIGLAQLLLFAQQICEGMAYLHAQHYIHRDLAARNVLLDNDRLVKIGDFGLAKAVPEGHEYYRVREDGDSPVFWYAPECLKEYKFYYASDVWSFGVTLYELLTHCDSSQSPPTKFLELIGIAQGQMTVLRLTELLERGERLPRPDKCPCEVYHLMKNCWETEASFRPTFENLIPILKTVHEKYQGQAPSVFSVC

Sequence of JAK2 (O60674 whole entry, species assumed): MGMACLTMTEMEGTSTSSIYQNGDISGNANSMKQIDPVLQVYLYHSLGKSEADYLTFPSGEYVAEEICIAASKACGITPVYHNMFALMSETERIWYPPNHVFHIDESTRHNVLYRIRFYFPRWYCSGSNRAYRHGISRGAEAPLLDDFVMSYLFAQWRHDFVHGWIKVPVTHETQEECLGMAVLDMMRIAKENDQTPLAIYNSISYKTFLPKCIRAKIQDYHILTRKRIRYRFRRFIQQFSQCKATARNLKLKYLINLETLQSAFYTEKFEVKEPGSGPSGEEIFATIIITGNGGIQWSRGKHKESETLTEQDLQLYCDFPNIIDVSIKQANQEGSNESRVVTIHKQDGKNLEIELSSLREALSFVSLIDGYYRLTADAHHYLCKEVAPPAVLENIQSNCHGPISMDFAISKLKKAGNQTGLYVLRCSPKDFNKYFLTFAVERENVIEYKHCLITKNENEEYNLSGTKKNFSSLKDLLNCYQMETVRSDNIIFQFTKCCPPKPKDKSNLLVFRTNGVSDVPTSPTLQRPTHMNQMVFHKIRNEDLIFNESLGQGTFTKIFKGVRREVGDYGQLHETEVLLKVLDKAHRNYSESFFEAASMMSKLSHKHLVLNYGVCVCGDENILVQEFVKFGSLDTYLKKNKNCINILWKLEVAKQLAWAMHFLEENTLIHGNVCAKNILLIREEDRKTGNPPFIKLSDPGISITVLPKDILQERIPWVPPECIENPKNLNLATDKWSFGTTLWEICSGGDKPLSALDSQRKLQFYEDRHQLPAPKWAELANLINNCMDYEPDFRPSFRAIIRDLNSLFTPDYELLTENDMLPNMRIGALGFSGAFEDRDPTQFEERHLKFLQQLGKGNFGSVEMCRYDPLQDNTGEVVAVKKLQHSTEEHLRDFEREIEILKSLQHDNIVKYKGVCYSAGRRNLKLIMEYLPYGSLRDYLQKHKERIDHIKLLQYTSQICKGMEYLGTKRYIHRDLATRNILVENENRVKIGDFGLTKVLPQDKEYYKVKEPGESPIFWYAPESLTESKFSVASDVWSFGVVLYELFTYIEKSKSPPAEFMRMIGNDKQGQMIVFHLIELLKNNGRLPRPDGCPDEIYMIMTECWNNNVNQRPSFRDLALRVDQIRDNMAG
Sequence of JAK3 (P52333 whole entry, species assumed): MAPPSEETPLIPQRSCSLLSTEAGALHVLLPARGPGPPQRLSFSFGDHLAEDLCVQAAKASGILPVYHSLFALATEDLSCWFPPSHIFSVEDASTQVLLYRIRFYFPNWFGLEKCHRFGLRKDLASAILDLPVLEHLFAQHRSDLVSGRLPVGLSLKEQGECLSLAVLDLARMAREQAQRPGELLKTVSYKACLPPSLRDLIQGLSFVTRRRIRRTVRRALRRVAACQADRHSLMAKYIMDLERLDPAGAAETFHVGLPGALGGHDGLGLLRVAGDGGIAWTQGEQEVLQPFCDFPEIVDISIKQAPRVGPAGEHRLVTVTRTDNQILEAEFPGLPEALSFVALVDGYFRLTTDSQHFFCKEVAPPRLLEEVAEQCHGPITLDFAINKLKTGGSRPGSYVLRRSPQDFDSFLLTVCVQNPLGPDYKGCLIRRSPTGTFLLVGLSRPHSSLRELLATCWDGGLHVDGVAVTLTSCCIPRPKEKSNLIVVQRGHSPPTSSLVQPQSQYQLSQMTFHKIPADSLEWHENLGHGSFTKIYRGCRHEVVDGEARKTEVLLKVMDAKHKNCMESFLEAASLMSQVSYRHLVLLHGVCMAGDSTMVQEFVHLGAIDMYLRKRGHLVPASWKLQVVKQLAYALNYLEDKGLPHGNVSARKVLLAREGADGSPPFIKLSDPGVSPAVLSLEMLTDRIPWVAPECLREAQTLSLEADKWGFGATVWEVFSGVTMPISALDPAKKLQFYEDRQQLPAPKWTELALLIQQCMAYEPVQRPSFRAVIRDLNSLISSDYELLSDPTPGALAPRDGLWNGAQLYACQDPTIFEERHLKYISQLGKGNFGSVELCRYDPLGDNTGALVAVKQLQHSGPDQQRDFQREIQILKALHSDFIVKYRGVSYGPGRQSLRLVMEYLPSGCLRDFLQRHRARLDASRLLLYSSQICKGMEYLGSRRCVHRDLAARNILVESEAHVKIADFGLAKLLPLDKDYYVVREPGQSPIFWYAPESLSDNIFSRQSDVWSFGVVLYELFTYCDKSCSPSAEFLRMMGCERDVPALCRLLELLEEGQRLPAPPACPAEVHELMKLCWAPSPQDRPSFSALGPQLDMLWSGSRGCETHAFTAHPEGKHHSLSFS
Sequence of JAK1 (P23458 whole entry, species assumed): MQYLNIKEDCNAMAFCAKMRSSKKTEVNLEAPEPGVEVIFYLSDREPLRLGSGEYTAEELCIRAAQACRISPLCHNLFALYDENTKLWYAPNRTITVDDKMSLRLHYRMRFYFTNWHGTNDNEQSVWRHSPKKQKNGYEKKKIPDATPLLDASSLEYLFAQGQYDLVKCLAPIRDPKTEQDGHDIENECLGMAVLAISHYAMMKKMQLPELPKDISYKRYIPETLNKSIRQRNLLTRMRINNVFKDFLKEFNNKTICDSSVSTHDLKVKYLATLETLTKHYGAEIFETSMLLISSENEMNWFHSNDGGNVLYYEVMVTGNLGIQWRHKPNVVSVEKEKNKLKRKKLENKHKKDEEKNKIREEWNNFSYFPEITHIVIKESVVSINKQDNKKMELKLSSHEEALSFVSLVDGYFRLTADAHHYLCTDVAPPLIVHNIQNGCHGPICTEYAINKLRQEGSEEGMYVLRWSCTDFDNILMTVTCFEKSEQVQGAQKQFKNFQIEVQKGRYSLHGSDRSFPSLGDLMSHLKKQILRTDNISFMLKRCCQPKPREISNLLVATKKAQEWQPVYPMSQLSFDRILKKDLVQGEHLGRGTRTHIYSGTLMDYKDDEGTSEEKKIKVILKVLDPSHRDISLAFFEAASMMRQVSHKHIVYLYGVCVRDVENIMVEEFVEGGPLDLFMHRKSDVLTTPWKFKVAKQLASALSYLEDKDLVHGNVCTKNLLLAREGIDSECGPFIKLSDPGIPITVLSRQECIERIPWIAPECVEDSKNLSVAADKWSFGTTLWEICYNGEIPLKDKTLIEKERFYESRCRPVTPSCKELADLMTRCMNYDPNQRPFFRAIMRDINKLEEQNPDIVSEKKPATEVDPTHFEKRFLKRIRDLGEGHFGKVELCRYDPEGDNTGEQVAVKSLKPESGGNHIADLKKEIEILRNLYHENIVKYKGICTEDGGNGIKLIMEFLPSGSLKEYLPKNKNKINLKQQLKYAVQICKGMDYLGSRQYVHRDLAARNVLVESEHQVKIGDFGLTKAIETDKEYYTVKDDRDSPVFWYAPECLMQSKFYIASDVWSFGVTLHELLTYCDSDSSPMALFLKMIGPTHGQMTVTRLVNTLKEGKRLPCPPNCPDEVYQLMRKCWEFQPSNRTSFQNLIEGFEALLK

IC50 (JAK1) [nM] | IC50 (JAK2) [nM] | IC50 (JAK3) [nM] | IC50 (TYK2) [nM] | SMILES
19 | 31.4 | 18.4 | 1290 | CCc1cc(O)c(F)cc1-c1cc2[nH]ncc2c(NCc2cc(C)ccc2N(C)S(C)(=O)=O)n1 [Example 132, N-[2-({[6-(2-ethyl-5-fluoro-4-hydroxyphenyl)-1H-pyrazolo[4,3-c]pyridin-4-yl]amino}methyl)-4-methylphenyl]-N-methylmethanesulfonamide hydrochloride]
1.2 | 5.9 | 30.5 | 249 | CCc1cc(O)c(F)cc1-c1cc2[nH]ncc2c(NCc2cc(Cl)ccc2N(C)S(C)(=O)=O)n1 [Example 133, N-[4-chloro-2-({[6-(2-ethyl-5-fluoro-4-hydroxyphenyl)-1H-pyrazolo[4,3-c]pyridin-4-yl]amino}methyl)phenyl]-N-methylmethanesulfonamide hydrochloride]
< 0.5 | 1.7 | 7.6 | 20.3 | CCc1cc(O)c(F)cc1-c1cc2[nH]ncc2c(NCc2c(F)cccc2N(C)S(C)(=O)=O)n1 [Example 134, N-[2-({[6-(2-ethyl-5-fluoro-4-hydroxyphenyl)-1H-pyrazolo[4,3-c]pyridin-4-yl]amino}methyl)-3-fluorophenyl]-N-methylmethanesulfonamide hydrochloride]
0.8 | 4.3 | 22.4 | 8.7 | CCc1cc(O)c(F)cc1-c1cc2[nH]ncc2c(NCc2ccccc2N(CC)S(=O)(=O)CC)n1 [Example 136, N-ethyl-N-[2-({[6-(2-ethyl-5-fluoro-4-hydroxyphenyl)-1H-pyrazolo[4,3-c]pyridin-4-yl]amino}methyl)phenyl]ethanesulfonamide hydrochloride]
< 0.1 | 0.3 | 3.3 | 45.4 | CCCN(c1ccccc1CNc1nc(-c2cc(F)c(O)cc2CC)cc2[nH]ncc12)S(C)(=O)=O [Example 137, N-[2-({[6-(2-Ethyl-5-fluoro-4-hydroxyphenyl)-1H-pyrazolo[4,3-c]pyridin-4-yl]amino}methyl)phenyl]-N-propylmethanesulfonamide]
3.4 | 7.9 | 27.9 | 885 | CCc1cc(O)c(F)cc1-c1cc2[nH]ncc2c(N(C)Cc2cc(C)ccc2N(CC)S(C)(=O)=O)n1 [Example 142, N-ethyl-N-[2-({[6-(2-ethyl-5-fluoro-4-hydroxyphenyl)-1H-pyrazolo[4,3-c]pyridin-4-yl](methyl)-amino}methyl)-4-methylphenyl]methanesulfonamide]
40.4 | 43.6 | 122 | 4660 | CCc1cc(O)c(F)cc1-c1cc2[nH]ncc2c(N(CC)Cc2cc(C)ccc2N(C)S(C)(=O)=O)n1 [Example 143, N-[2-({ethyl[6-(2-ethyl-5-fluoro-4-hydroxyphenyl)-1H-pyrazolo[4,3-c]pyridin-4-yl]amino}methyl)-4-methylphenyl]-N-methylmethanesulfonamide]
55.3 | 70.7 | 186 | 8730 | CCCN(Cc1cc(C)ccc1N(C)S(C)(=O)=O)c1nc(-c2cc(F)c(O)cc2CC)cc2[nH]ncc12 [Example 144, N-[2-({[6-(2-ethyl-5-fluoro-4-hydroxyphenyl)-1H-pyrazolo[4,3-c]pyridin-4-yl](propyl)amino}-methyl)-4-methylphenyl]-N-methylmethanesulfonamide]
1 | 4.5 | 16.2 | 15.8 | CCc1cc(O)c(F)cc1-c1cc2[nH]ncc2c(N(C)Cc2ccccc2N(CC)S(C)(=O)=O)n1 [Example 145, N-Ethyl-N-[2-({[6-(2-ethyl-5-fluoro-4-hydroxyphenyl)-1H-pyrazolo[4,3-c]pyridin-4-yl](methyl)amino}methyl)phenyl]methanesulfonamide hydrochloride]
0.9 | 5.1 | 19.1 | 49.9 | CCc1cc(O)c(F)cc1-c1cc2[nH]ncc2c(N(C)Cc2ccccc2N(C)S(C)(=O)=O)n1 [Example 146, N-[2-({[6-(2-Ethyl-5-fluoro-4-hydroxyphenyl)-1H-pyrazolo[4,3-c]pyridin-4-yl](methyl)amino}methyl)phenyl]-N-methylmethanesulfonamide hydrochloride]
1.1 | 4.7 | 18.5 | 49.4 | CCc1cc(O)c(F)cc1-c1cc2[nH]ncc2c(NCc2ccccc2N(CCO)S(C)(=O)=O)n1 [Example 147, N-[2-({[6-(2-Ethyl-5-fluoro-4-hydroxyphenyl)-1H-pyrazolo[4,3-c]pyridin-4-yl]amino}methyl)phenyl]-N-(2-hydroxyethyl)methanesulfonamide]
1.8 | 6.3 | 22.8 | 146 | CN(c1ccccc1CNc1nc(-c2cc(F)c(O)cc2CC(F)(F)F)cc2[nH]ncc12)S(C)(=O)=O [Example 148, N-{2-[({6-[5-Fluoro-4-hydroxy-2-(2,2,2-trifluoroethyl)phenyl]-1H-pyrazolo[4,3-c]pyridin-4-yl}amino)methyl]phenyl}-N-methylmethanesulfonamide]
2.7 | 14.5 | 22.7 | 764 | CN(c1ccccc1CNCc1nc(-c2cc(F)c(O)cc2CC(F)(F)F)cc2[nH]ncc12)S(C)(=O)=O [Example 149]
21.6 | 48.9 | 77.8 | 4160 | Cc1ccc(N(C)S(C)(=O)=O)c(CNc2nc(-c3cc(F)c(O)cc3CC(F)(F)F)cc3[nH]ncc23)c1 [Example 150, N-{2-[({6-[5-Fluoro-4-hydroxy-2-(2,2,2-trifluoroethyl)phenyl]-1H-pyrazolo[4,3-c]pyridin-4-yl}amino)methyl]-4-methylphenyl}-N-methylmethanesulfonamide]
74 | 241 | 207 | 7460 | CC(C)CNc1nc(-c2cc(F)c(O)cc2CC(F)(F)F)nc2[nH]ncc12 [Example 153, 2-fluoro-4-{4-[(2-methyl-propyl)amino]-1H-pyrazolo[3,4-d]pyrimidin-6-yl}-5-(2,2,2-trifluoroethyl)phenol]
3.4 | 15 | 76.5 | 11.7 | CCc1cc(O)c(F)cc1-c1cc2[nH]nc(-c3ncc[nH]3)c2c(NCc2ccccc2N(C)S(C)(=O)=O)n1 [Example 157, N-[2-({[6-(2-Ethyl-5-fluoro-4-hydroxyphenyl)-3-(1H-imidazol-2-yl)-1H-pyrazolo[4,3-c]pyridin-4-yl]amino}methyl)phenyl]-N-methylmethanesulfonamide]
4.3 | 18.5 | 83.3 | 16.1 | CCc1cc(O)c(F)cc1-c1cc2[nH]nc(-c3nc(C)c[nH]3)c2c(NCc2ccccc2N(C)S(C)(=O)=O)n1 [Example 159, N-[2-({[6-(2-Ethyl-5-fluoro-4-hydroxyphenyl)-3-(4-methyl-1H-imidazol-2-yl)-1H-pyrazolo[4,3-c]pyridin-4-yl]amino}methyl)phenyl]-N-methylmethanesulfonamide]
4.1 | 23.6 | 90.6 | 15.4 | CCc1cc(O)c(F)cc1-c1cc2[nH]nc(-n3cccn3)c2c(NCc2ccccc2N(C)S(C)(=O)=O)n1 [Example 162, N-[2-({[6-(2-Ethyl-5-fluoro-4-hydroxyphenyl)-3-(1H-pyrazol-1-yl)-1H-pyrazolo[4,3-c]pyridin-4-yl]amino}methyl)phenyl]-N-methylmethanesulfonamide]
32.9 | 150 | 491 | 356 | CN(c1ccccc1CNc1nc(-c2cc(F)c(O)cc2CC(F)(F)F)cc2[nH]nc(-n3cccn3)c12)S(C)(=O)=O [Example 163, N-{2-[({6-[5-Fluoro-4-hydroxy-2-(2,2,2-trifluoroethyl)phenyl]-3-(1H-pyrazol-1-yl)-1H-pyrazolo[4,3-c]pyridin-4-yl}amino)methyl]phenyl}-N-methylmethanesulfonamide]
3.5 | 16.9 | 78 | 14.6 | CCc1cc(O)c(F)cc1-c1cc2[nH]nc(-c3nnc(C)[nH]3)c2c(NCc2ccccc2N(C)S(C)(=O)=O)n1 [Example 165, N-[2-({[6-(2-Ethyl-5-fluoro-4-hydroxyphenyl)-3-(5-methyl-4H-1,2,4-triazol-3-yl)-1H-pyrazolo[4,3-c]pyridin-4-yl]amino}methyl)phenyl]-N-methylmethanesulfonamide]
9.3 | 50.3 | 134 | 180 | CC(CO)CNc1nc(-c2cc(F)c(O)cc2CC(F)(F)F)nc2[nH]nc(-c3nc4c([nH]3)CCN(Cc3ccccc3)C4)c12 (stereo not drawn) [Example 173, 4-(3-(5-Benzyl-4,5,6,7-tetrahydro-1H-imidazo[4,5-c]pyridin-2-yl)-4-((3-hydroxy-2-methylpropyl)amino)-1H-pyrazolo[3,4-d]pyrimidin-6-yl)-2-fluoro-5-(2,2,2-trifluoroethyl)phenol]
